This note sets out measurements from article PMC8086144, “A novel peptide antagonist of the human growth hormone receptor” (The Journal of Biological Chemistry, 2021).

This assay deals with T1, hPRLR (Homo sapiens, UniProt P16471).
T1 construct: T84 cells express high levels of hPRLR relative to hGHR (>1300:1); host or cells: T84 (human colon cancer), MALME-3M (human melanoma)
T1 sequence (P16471 25-622): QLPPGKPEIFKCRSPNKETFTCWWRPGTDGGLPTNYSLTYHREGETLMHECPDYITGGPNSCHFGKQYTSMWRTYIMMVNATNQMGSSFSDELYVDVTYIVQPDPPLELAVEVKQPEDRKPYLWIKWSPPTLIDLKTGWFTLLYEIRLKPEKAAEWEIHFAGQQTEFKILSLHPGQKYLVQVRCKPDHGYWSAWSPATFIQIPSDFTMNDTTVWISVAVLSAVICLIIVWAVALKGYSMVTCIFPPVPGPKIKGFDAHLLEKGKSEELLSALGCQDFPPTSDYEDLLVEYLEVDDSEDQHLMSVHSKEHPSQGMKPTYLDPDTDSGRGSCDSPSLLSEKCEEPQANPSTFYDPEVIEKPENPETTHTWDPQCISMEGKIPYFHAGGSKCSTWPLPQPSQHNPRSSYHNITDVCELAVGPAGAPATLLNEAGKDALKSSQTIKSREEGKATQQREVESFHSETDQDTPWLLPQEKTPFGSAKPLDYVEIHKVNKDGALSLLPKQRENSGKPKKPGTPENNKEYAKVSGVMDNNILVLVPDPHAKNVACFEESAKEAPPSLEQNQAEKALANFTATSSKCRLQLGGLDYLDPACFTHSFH
The assay can be described thus: hPRL-induced pSTAT5 in MALME-3M cells, Western blot. The class given is cell-based. As to conditions: 2.5 nM hPRL, 20 min, S1H concentration not given. As for the experimental part:
SK-MEL-28, MALME-3M, and T84 cells were grown and maintained in Eagle's Minimal Essential Medium. IM9 and L cells were grown in RPMI-1640 media and Dulbecco's modified Eagle's medium, respectively. All growth media was supplemented with 10% fetal bovine serum and 1× antibiotic-antimycotic […] solution. Cells were grown at 37 °C under a 5% CO2 atmosphere in a humidified incubator, and growth media was replaced every 48 h during incubation. No hGH was present in or added to the growth media unless specifically indicated. […]
Following treatment, the cells were harvested at the indicated time points, and the total protein was extracted. […] Sample protein concentration was quantified using a Bradford assay with bovine serum albumin as the protein standard. Absorbance at 595 nm was measured using a Spectramax 250 multimode plate reader (Molecular Devices) and processed using SoftmaxPro v4.7.1 software.
Cytosolic fractions from treated cells were thawed on ice, and 80 μg protein was loaded onto polyacrylamide gels for separation by SDS-PAGE. […] Chemiluminescence signals were detected using a GelDoc (BioRad) fluorescence imager. […]
Background: A western blot detects proteins with antibodies after separation by electrophoresis.

In the case of `CC[C@H](C)[C@H](NC(=O)[C@H](Cc1ccc(O)cc1)NC(C)=O)C(=O)N1CCC[C@H]1C(=O)N[C@@H](CCCCN)C(=O)N[C@@H](CCC(=O)O)C(=O)N[C@@H](CCC(N)=O)C(=O)N[C@@H](CCCCN)C(=O)N[C@@H](Cc1ccc(O)cc1)C(=O)N[C@@H](CO)C(=O)N[C@@H](Cc1ccccc1)C(=O)N[C@@H](CC(C)C)C(=O)N[C@@H](CCC(N)=O)C(=O)N[C@@H](CC(N)=O)C(=O)N1CCC[C@H]1C(=O)N[C@@H](CCC(N)=O)C(=O)N[C@H](C(N)=O)[C@@H](C)O` [S1H], the “inhibition of hPRL-induced pSTAT5” value is on record as 49%.
